How the values were obtained:
[1] = tested on: α2β3γ1 GABAAR co-expressed with human UT; assay: Patch-clamp of Iso-evoked current in CHO-UT expressing α2β3γ1 GABAAR; type: cell-based; settings: hUII 10^−13 to 10^−7 M; Iso 10^−4 M, 2 s; −60 mV
Protocol: CHO-K1 cell lines were obtained from American Type Culture Collection (Manassas, VA, USA). The human UT stable CHO (CHO-UT) was generously provided by Dr Christophe Dubessy (Inserm, Rouen University, France) et generated by CHO electroporation with 20 µg pIRES-neo2-UT DNA and 500 µg sterile sonicated salmon sperm DNA using the EasyJect One electroporation system (Equibio, Angleur, Belgium), followed by repetitive rounds of limiting dilution of cells in G-418 (400 µg/ml) for selection. Normal or stable CHO was grown in Ham-F12 medium supplemented with 10% FBS, 1% antibiotic-antimicotic solution and 2 mM glutamine, at 37°C in a humidified incubator with an atmosphere of 5% CO2. The stable CHO-UT medium was supplemented with the antibiotic G-418 (40 µg/ml).
For transfection, cells were trypsinized (0.05%), triturated in HamF-12 containing 10% FBS media, pelleted by centrifugation, resuspended in 100 µl solution V for nucleofection by an Amaxa Nucleofector Device (Köln, Germany; set to program U-016). Experiments were performed on normal CHO or on the stable CHO-UT cells and transiently transfected with combinations of cDNA encoding α2β3γ2, α2β3γ1, α2β1γ2, α2β3γ1, α2β3, β3γ2 (4 µg of cDNA total/transfection) GABAAR subunits. Cells were seeded on 14-mm poly-L-lysine-coated glass bottom insert dishes at 5×10^5 cells in a volume of 0.5 ml/dish. […]

[2] = tested on: γ2^HA GABAAR subunit; assay: Cell surface ELISA of γ2^HA GABAAR subunit in CHO-UT^c-myc-α2β3γ2^HA; type: cell-based; settings: hUII 10^−8 M, 30 min, 37°C, 5 to 7 independent experiments in triplicates
Protocol: Cells were plated at 50 000 cells/well in 96-well plates coated with 0.1 mg/ml poly-L-ornithine (Sigma-Aldrich). […] Cells were fixed with 4% PFA in PBS for 5 min at RT, washed in PBS, and then permeabilized in 0.05% triton X100 (only for permeabilized cells) and non specific binding were blocked with PBS containing 1% FBS for 30 min at RT. The first rat anti-HA monoclonal antibody (0.5 µg/ml, 3F10 clone, Roche, Meylan, France or 1 µg/ml, Santa-Cruz), mouse anti-c-myc monoclonal antibody (1.33 µg/ml, 9E10 clone, Roche), rabbit anti-UT antibody (1 µg/ml, Tebu, Santa-Cruz) or rabbit anti-β3 antibody (1∶200, Abcam, Paris, France), were added for 1 h30 at RT. Incubation with goat anti-rat (Thermo scientific, Fisher, Brebières, France), goat anti-mouse (Santa Cruz) or goat anti-rabbit (Tebu, Santa Cruz) conjugated alkaline phosphatase diluted at 1∶1000 in PBS/FBS was carried out for 30 min at RT. The cells were washed four times with PBS, a colorimetric alkaline phosphatase substrate was added (SuperSignal ELISA, Thermo scientific, Fisher) and the resulting color reaction was measured using a Viktor multilabel plate reader (PerkinElmer, Courtaboeuf, France). Background absorbance from samples transfected with non-tagged receptors or from cells without first antibodies were systematically measured. […] All experiments were done at least three times in triplicates.

## ETPDCFWKYCV (disulfide) [hUII, human urotensin II, synthesized by solid phase methodology]
[1]
  Inhibitory effect on Iso-evoked current, α2β3γ1: less effective
[2]
  Loss of γ2^HA subunit from the cell surface: approximately 40%

From PMC3341351, “Down-Regulation of GABAA Receptor via Promiscuity with the Vasoactive Peptide Urotensin II Receptor. Potential Involvement in Astrocyte Plasticity” (PLoS ONE, 2012)
